The values that follow come from paper PMC6891762, “Novel Isoxazolidine and γ-Lactam Analogues of Homonucleosides” (Molecules, 2019).

In general, IC50 refers to the point on the concentration scale where inhibition reaches its midpoint.

Common to all, as to type: cell-based
For assay [1], the system named is hTERT RPE-1 normal retina (non-cancerous) cells. Description: Cytostatic activity, normal retina cells. As to conditions: concentration causing 50% decrease in cell proliferation. How it is done:
(§1) The 50% cytostatic inhibitory concentration (IC50) causing a 50% decrease in cell proliferation was determined for all isolated isoxazolidines 14 and γ-lactams 15 toward nine cancerous cell lines (Capan-1 (pancreatic adenocarcinoma), Hap1 (chronic myeloid leukemia), HCT-116 (colorectal carcinoma), NCI-H460 (lung carcinoma), DND-41 (acute lymphoblastic leukemia), HL-60 (acute myeloid leukemia), K-562 (chronic myeloid leukemia), MM.1S (multiple myeloma) and Z-138 (non-Hodgkin lymphoma)) and normal retina (non-cancerous) cells (hTERT RPE-1). Docetaxel, etoposide and stauroporine were used as the reference compounds.
(§2) All assays were performed in 96-well microtiter plates. To each well was added (5−7.5) × 10^4 tumor cells and a given amount of the test compound. The cells were allowed to proliferate at 37 °C in a humidified, CO2-controlled atmosphere. At the end of the incubation period, the cells were counted in a Coulter counter. The IC50 (50% inhibitory concentration) was defined as the concentration of the compound that inhibited cell proliferation by 50%.

The test system of assay [2] is Capan-1 (pancreatic adenocarcinoma) cells. Description: Cytostatic activity, Capan-1. As for the experimental part: The 50% cytostatic inhibitory concentration (IC50) causing a 50% decrease in cell proliferation was determined for all isolated isoxazolidines 14 and γ-lactams 15 toward nine cancerous cell lines (Capan-1 (pancreatic adenocarcinoma), Hap1 (chronic myeloid leukemia), HCT-116 (colorectal carcinoma), NCI-H460 (lung carcinoma), DND-41 (acute lymphoblastic leukemia), HL-60 (acute myeloid leukemia), K-562 (chronic myeloid leukemia), MM.1S (multiple myeloma) and Z-138 (non-Hodgkin lymphoma)) and normal retina (non-cancerous) cells (hTERT RPE-1).
All assays were performed in 96-well microtiter plates. To each well was added (5−7.5) × 10^4 tumor cells and a given amount of the test compound. The cells were allowed to proliferate at 37 °C in a humidified, CO2-controlled atmosphere. At the end of the incubation period, the cells were counted in a Coulter counter.

The test system of assay [3] is NCI-H460 (lung carcinoma) cells. Description: Cytostatic activity, NCI-H460. To be noted: concentration causing 50% decrease in cell proliferation. As for the experimental part: as §1, §2
Assay [4] relates to Hap1 (chronic myeloid leukemia) cells. Put plainly: Cytostatic activity, Hap1. To be noted: concentration causing 50% decrease in cell proliferation. As for the experimental part: as §1, §2
The subject of assay [5] is HCT-116 (colorectal carcinoma) cells. Description: Cytostatic activity, HCT-116. As to conditions: concentration causing 50% decrease in cell proliferation. How it is done: as §1, §2
[6] abbreviates: Homo sapiens, CAPAN-1, concentration causing 50% decrease in cell proliferation.
Where [7] appears, read: concentration causing 50% decrease in cell proliferation.

With `COc1cc([C@@H]2c3cc4c(cc3[C@@H](O[C@@H]3O[C@@H]5CO[C@@H](C)O[C@H]5[C@H](O)[C@H]3O)[C@H]3COC(=O)[C@H]23)OCO4)cc(OC)c1O` [Etoposide, reference compound], the 50% inhibitory concentration (IC50) in assay [1] (hTERT-RPE1) is 0.23 µM; in assay [2] (setting [6]), 0.15 µM; in assay [3] (Homo sapiens, NCI-H460), 1.35 µM; in assay [4] (Homo sapiens, HAP1) it was 0.04 µM; in assay [5] (Homo sapiens, HCT-116), 1.03 µM.
The corresponding values for `CN1C(=O)[C@@H](O)C[C@@H]1Cn1cnc2c(=O)n(C)c(=O)n(C)c21` (relative stereo) [trans-15h, trans-9-[(4-Hydroxy-1-methyl-5-oxopyrrolidin-2-yl)methyl]-1,3-dimethyl-3,9-dihydro-1H-purine-2,6-dione] are more than 100 µM, 47.2 µM, 49.8 µM, more than 100 µM and 45.7 µM.
On the same counts, the results for `CN1C(=O)C(O)C[C@H]1Cn1cc(Br)c(=O)[nH]c1=O` (stereo partly drawn) [cis-15d:trans-15d (53:47)] are more than 100 µM, 52.1 µM, 49.4 µM, 49.9 µM and 90 µM.
As for `CN1C(=O)[C@H](O)C[C@H]1CN1CCC(=O)NC1=O` [trans-15g, trans-1-[(4-Hydroxy-1-methyl-5-oxopyrrolidin-2-yl)metyl]dihydropyrimidine-2,4(1H,3H)-dione], the 50% inhibitory concentration (IC50) in assay [1] (hTERT-RPE1) was more than 100 µM; in assay [2] (setting [6]), 46.7 µM; in assay [3] (Homo sapiens, NCI-H460), 69.3 µM; in assay [4] (Homo sapiens, HAP1), 49.4 µM; in assay [5] (Homo sapiens, HCT-116), more than 100 µM.
Regarding `COC(=O)[C@@H]1C[C@H](Cn2cnc3c(=O)n(C)c(=O)n(C)c32)N(C)O1` (relative stereo) [cis-14h, Methyl cis-3-[(1,3-dimethyl-2,6-dioxo-1,2,3,6-tetrahydro-9H-purin-9-yl)methyl]-2-methylisoxazolidine-5-carboxylate], the IC50 in assay [1] (hTERT-RPE1) is more than 100 µM; in assay [2] (setting [6]) it was 62.2 µM; in assay [3] (Homo sapiens, NCI-H460), 33.2 µM; in assay [4] (Homo sapiens, HAP1), 45.1 µM; in assay [5] (Homo sapiens, HCT-116), 49 µM.
`CN1C(=O)[C@H](O)C[C@@H]1Cn1cnc2c(=O)n(C)c(=O)n(C)c21` (relative stereo) [cis-15h, cis-9-[(4-Hydroxy-1-methyl-5-oxopyrrolidin-2-yl)methyl]-1,3-dimethyl-3,9–dihydro-1H-purine-2,6-dione]: the IC50 in assay [1] (hTERT-RPE1) was more than 100 µM; in assay [2] (setting [6]), 18.2 µM; in assay [2] (setting [7]), 21.5 µM; in assay [3] (Homo sapiens, NCI-H460), 42.5 µM; in assay [4] (Homo sapiens, HAP1), 50.2 µM; in assay [5] (Homo sapiens, HCT-116), 43.5 µM.
Regarding `COC(=O)[C@H]1C[C@H](Cn2cc(I)c(=O)[nH]c2=O)N(C)O1` (relative stereo) [trans-14f, Methyl trans-3-{[5-iodo-2,4-dioxo-3,4–dihydropyrimidin-1(2H)-yl]metyl}-2-methylisoxazolidine-5-carboxylate], the IC50 in assay [1] is more than 100 µM; in assay [2] (setting [7]) it was 41.4 µM; in assay [3], 41.1 µM; in assay [4] it was 47 µM; in assay [5] it was 53.5 µM.
As for `Cc1cn(C[C@H]2C[C@H](O)C(=O)N2C)c(=O)[nH]c1=O` (relative stereo) [trans-15b, trans-1-[(4-Hydroxy-1-methyl-5-oxopyrrolidin-2-yl)methyl]-5-methylpyrimidine-2,4(1H,3H)-dione], the IC50 is more than 100 µM in assay [1] (hTERT-RPE1); 49.2 µM in assay [2] (setting [6]); 55.6 µM in assay [3] (Homo sapiens, NCI-H460); 86.5 µM in assay [4] (Homo sapiens, HAP1); 53.3 µM in assay [5] (Homo sapiens, HCT-116).
The corresponding values for `COC(=O)[C@H]1C[C@H](Cn2cc(C)c(=O)[nH]c2=O)N(C)O1` (relative stereo) [trans-14b, Methyl trans-2-methyl-3-{[5-methyl-2,4-dioxo-3,4–dihydropyrimidin-1(2H)-yl]methyl}isoxazolidine-5-carboxylate] are more than 100 µM, 51.3 µM, more than 100 µM, more than 100 µM and more than 100 µM.
As for `CN1C(=O)[C@@H](O)C[C@@H]1Cn1cc(Cl)c(=O)[nH]c1=O` (relative stereo) [trans-15e, trans-5-Chloro-1-[(4-hydroxy-1-methyl-5-oxopyrrolidin-2-yl)methyl]pyrimidine-2,4(1H,3H)-dione], the half-maximal inhibitory concentration (IC50) in assay [1] (hTERT-RPE1) is more than 100 µM; in assay [2] (setting [6]) it was 21.5 µM; in assay [2] (setting [7]), 18.2 µM; in assay [3] (Homo sapiens, NCI-H460), 47.7 µM; in assay [4] (Homo sapiens, HAP1) it was 54.5 µM; in assay [5] (Homo sapiens, HCT-116), more than 100 µM.
As for `CN1C(=O)[C@@H](O)C[C@H]1CN1CCC(=O)NC1=O` [cis-15g, cis-1-[(4-Hydroxy-1-methyl-5-oxopyrrolidin-2-yl)metyl]dihydropyrimidine-2,4(1H,3H)-dione], the IC50 in assay [1] (hTERT-RPE1) was more than 100 µM; in assay [2] (setting [6]), 41.3 µM; in assay [3] (Homo sapiens, NCI-H460) it was 42.7 µM; in assay [4] (Homo sapiens, HAP1), 56.3 µM; in assay [5] (Homo sapiens, HCT-116) it was more than 100 µM.
On to `COC(=O)[C@H]1C[C@H](Cn2ccc(=O)[nH]c2=O)N(C)O1` (relative stereo) [trans-14a, Methyl trans-3-{[2,4-dioxo-3,4–dihydropyrimidin-1(2H)-yl]methyl}-2-methylisoxazolidine-5-carboxylate], for which the IC50 was more than 100 µM in assay [1] (hTERT-RPE1); 62.6 µM in assay [2] (setting [6]); 90.3 µM in assay [3] (Homo sapiens, NCI-H460); more than 100 µM in assay [4] (Homo sapiens, HAP1); more than 100 µM in assay [5] (Homo sapiens, HCT-116).
Turning to `COC(=O)[C@H]1C[C@H](Cn2cnc3c(=O)n(C)c(=O)n(C)c32)N(C)O1` (relative stereo) [trans-14h, Methyl trans-3-[(1,3-dimethyl-2,6-dioxo-1,2,3,6-tetrahydro-9H-purin-9-yl)methyl]-2-methylisoxazolidine-5-carboxylate], the half-inhibitory concentration (IC50) was more than 100 µM in assay [1] (hTERT-RPE1); 43.2 µM in assay [2] (setting [6]); 51.2 µM in assay [3] (Homo sapiens, NCI-H460); 53.6 µM in assay [4] (Homo sapiens, HAP1); 60.9 µM in assay [5] (Homo sapiens, HCT-116).
As for `COC(=O)[C@H]1C[C@H](Cn2cc(F)c(=O)[nH]c2=O)N(C)O1` (relative stereo) [trans-14c, Methyl trans-3-{[5-fluoro-2,4-dioxo-3,4–dihydropyrimidin-1(2H)-yl]metyl}-2-methylisoxazolidine-5-carboxylate], the concentration for half-maximal inhibition (IC50) in assay [1] was more than 100 µM; in assay [2] (setting [7]) it was 49 µM; in assay [3], more than 100 µM; in assay [4] it was more than 100 µM; in assay [5], more than 100 µM.
Regarding `CN1C(=O)[C@@H](O)C[C@@H]1Cn1cnc2c(N)ncnc21` (relative stereo) [trans-15i, trans-5-[(6-Amino-9H-purin-9-yl)methyl]-3-hydroxy-1-methylpyrrolidin-2-one], the IC50 in assay [1] (hTERT-RPE1) was more than 100 µM; in assay [2] (setting [6]), 53.7 µM; in assay [3] (Homo sapiens, NCI-H460), 54.7 µM; in assay [4] (Homo sapiens, HAP1), 47.8 µM; in assay [5] (Homo sapiens, HCT-116) it was 65.7 µM.
The corresponding values for `CN1C(=O)[C@@H](O)C[C@@H]1Cn1cc(Br)c(=O)[nH]c1=O` (relative stereo) [trans-15d, trans-5-Bromo-1-[(4-hydroxy-1-methyl-5-oxopyrrolidin-2-yl)methyl]pyrimidine-2,4(1H,3H)-dione] are more than 100 µM, 24.8 µM, 42.1 µM, 58.5 µM and more than 100 µM.
Regarding `COC(=O)[C@H]1C[C@H](Cn2cc(Br)c(=O)[nH]c2=O)N(C)O1` (relative stereo) [trans-14d, Methyl trans-3-{[5-bromo-2,4-dioxo-3,4–dihydropyrimidin-1(2H)-yl]metyl}-2-methylisoxazolidine-5-carboxylate], the concentration for half-maximal inhibition (IC50) in assay [1] was more than 100 µM; in assay [2] (setting [7]), 67.8 µM; in assay [3] it was 76.1 µM; in assay [4] it was more than 100 µM; in assay [5] it was more than 100 µM.
Take `COC(=O)[C@@H]1C[C@H](Cn2cc(I)c(=O)[nH]c2=O)N(C)O1` (relative stereo) [cis-14f, Methyl cis-3-{[5-iodo-2,4-dioxo-3,4–dihydropyrimidin-1(2H)-yl]metyl}-2-methylisoxazolidine-5-carboxylate]: the 50% inhibitory concentration (IC50) in assay [2] (setting [7]) amounted to 42 µM; in assay [3] it was 44.6 µM; in assay [4], 40.9 µM; in assay [5] it was 57.9 µM.
For `CN[C@@H]1C[C@H]2O[C@@](C)([C@@H]1OC)n1c3ccccc3c3c4c(c5c6ccccc6n2c5c31)C(=O)NC4` [Stauroporine, reference compound], the IC50 in assay [1] was determined as 0.25 µM; in assay [3], 11.5 µM; in assay [4] it was 3.55 µM; in assay [5], 0.09 µM.
